{"source": "patent US9809593B2", "about": "“Use of tetramic acid derivatives as nematicides” (Syngenta Participations AG, priority 2013, dated 2017)", "format_in_all_cases": "in vivo", "key": {"[1]": {"tested_on": "Meloidogyne incognita (RKNi)", "assay": "Pot trial: foliar spray in cotton against root-knot nematodes", "settings": "for performance in comparison to prior art tetramic acid compound spirotetramat: foliar 100 g/ha", "excerpt": "POT TRIALS: Foliar spray in Cotton against nematodes Meloidogyne incognita (RKNi) using\n12 1-L Clay pots were used per treatment. Cotton: Fibre Max 966 seeds were planted into pots and allowed to germinate and grow into young plants. The pots were artificially infested with nematodes (RKNi) 2 days after treatment.\nAPPLICATION: Compounds A and B and comparison Spirotetramat were sprayed as a normal foliar spray with hollow cone nozzles directed onto the plants. The compounds A, B and spirotetramat used were formulated as a suspension concentrate formulation at a dose rate of 100 g/ha. The compounds were diluted to a spray volume of approx […], which was used on the young plants. The treatment was applied when the plants had at least 2 true leaves.\nIndustry comparison Abamectin as a seed treatment was also included in the trials as a comparison. AVICTA® 500 FS from Syngenta AG was used at a rate of 500 g/L as a flowable concentrate (FS) formulation and applied to the seeds as a slurry to provide a rate of 0.15 mg of active ingredient per seed.\nASSESSMENT: Plants were removed 2 days after foliar spray treatment to assess penetration of the nematode in the roots with a dyeing method. Root galling/cysts were assessed according to standard practice."}, "[2]": {"tested_on": "Heterodera schachtii Schmidt (SBCN)", "assay": "Pot trial: seed treatment and foliar spray in sugar beets, cysts per root system", "settings": "sugar beet, 25 days after inoculation", "protocol": "POT TRIALS: Seed treatments and Foliar spray in sugar beets (Beta Vulgaris cv Impulse) against root nematodes Heterodera schachtii Schmidt (SBCN)\n8×350 ml pots were used per treatment containing 350 ml soil (70% drench soil and 30% sand). 1 Seed per pot were planted into pot soil 0.5 cm deep and allowed to germinate and grow into young plants. Plants were kept under constant conditions of 25° C. during the day and 23° C. during the night with a humidity of 50-60% with 14 hour light periods. The pots were artificially infested with nematodes (SBCN) 7 days after sowing. For inoculation, 3 holes are drilled into the soil and 2 ml suspension of the nematodes per hole are applied.\n(§1) APPLICATION: Compounds B and comparison Spirotetramat were sprayed as a normal foliar spray with hollow cone nozzles directed onto the plants. The compounds B and Spirotetramat used were formulated as a suspension concentrate formulation at a dose rate of 100 g/ha. The first foliar spray was applied 14 days after sowing (i.e. 7 days after inoculation). A second foliar spray was carried out 21 days after sowing (i.e. 14 days after inoculation).\nAbamectin was used as a seed treatment. AVICTA® 400 FS from Syngenta AG was used at a rate of 400 g/L as a flowable concentrate (FS) formulation and applied to the seeds as a slurry to provide a rate of 0.6 mg and 1 mg of active ingredient per seed.\nASSESSMENT: Sugar beet plants were harvested 25 days after inoculation. Sugar beet root and shoot weights were assessed according to standard practice. Number of cysts per root system and as a function of root weight were assessed."}, "[3]": {"tested_on": "Heterodera schachtii Schmidt (SBCN)", "assay": "Pot trial: seed treatment and foliar spray in sugar beets, tuber weight", "settings": "sugar beet, n = 8-10, harvest after 4 months", "excerpt": "POT TRIALS: Seed treatments and Foliar spray in sugar beets (Beta Vulgaris cv Impulse) against root nematodes Heterodera schachtii Schmidt (SBCN) (origin Münster, Germany)\n15 7-L pots were used per treatment containing 7-L soil with an organic matter content of 2% (drench soil+sand). Seeds were planted into pot soil 1 cm deep and allowed to germinate and grow into young plants in a polytunnel. During the winter months, the pots were placed in a greenhouse. The pots were artificially infested with nematodes (SBCN) when preparing the soil for each pot and just before planting.\nas §1, with “A” for “B”, “sowing.” for “sowing (i.e. 7 days after inoculation).”, “3 weeks later.” for “21 days after sowing (i.e. 14 days after inoculation).”\nAbamectin was used as a seed treatment. AVICTA® 500 FS from Syngenta AG was used at a rate of 500 g/L as a flowable concentrate (FS) formulation and applied to the seeds as a slurry to provide a rate of 0.6 mg of active ingredient per seed.\nASSESSMENT: Sugar beet plants were harvested after 4 months according to the prevailing temperatures and weather conditions. Sugar beet tuber weights were assessed according to standard practice."}, "[4]": {"settings": "seed treatment 0.15 mg/seed at BBCH 00, artificial infestation at crop stage BBCH 14"}, "[5]": {"settings": "foliar 100 g/ha at BBCH 14, artificial infestation 2 days after foliar spray"}, "[6]": {"settings": "foliar 100 g/ha, first application +14 days after sowing"}}, "data": [{"compound": "Abamectin", "values": [{"measurement": "% root length in cm compared to check (= 100%)", "setting": "[1]; [4]", "result": 211, "unit": "%"}, {"measurement": "Number of root galls per plant", "setting": "[1]; [4]", "result": 0.33}, {"measurement": "Efficacy in % of cyst nematodes per root system", "setting": "[2]; Abamectin 0.6 mg/seed seed treatment", "result": 42, "unit": "%"}, {"measurement": "Efficacy in % of cyst nematodes per root system", "setting": "[2]; Abamectin 1 mg/seed seed treatment", "result": 60, "unit": "%"}, {"measurement": "Mean tuber weight relative to inoculated check (%), Observed %", "setting": "[3]; seed treatment 0.6 mg/seed at sowing", "result": 6.4, "unit": "%"}]}, {"compound": "CCOC(=O)OC1=C(c2cc(C)ccc2C)C(=O)N[C@]12CC[C@@H](OC)CC2", "note": "[Spirotetramat]", "values": [{"measurement": "% root length in cm compared to check (= 100%)", "setting": "[1]; [5]", "result": 100, "unit": "%"}, {"measurement": "Number of root galls per plant", "setting": "[1]; [5]", "result": 5.83}, {"measurement": "Mean tuber weight relative to inoculated check (%), Observed %", "setting": "[3]; [6]", "result": 30.0, "unit": "%"}]}, {"compound": "CCOC(=O)OC1=C(c2c(C)cc(Cl)cc2C)C(=O)N(C)C12CCN(OC)CC2", "note": "[Compound B]", "values": [{"measurement": "performance in comparison to prior art tetramic acid compound spirotetramat", "setting": "[1]", "result": "outperformed spirotetramat"}, {"measurement": "% root length in cm compared to check (= 100%)", "setting": "[1]; [5]", "result": 213, "unit": "%"}, {"measurement": "Number of root galls per plant", "setting": "[1]; [5]", "result": 0.33}, {"measurement": "Efficacy in % of cyst nematodes per root system", "setting": "[2]; Compound B 100 g/ha foliar", "result": 12, "unit": "%"}]}, {"compound": "CCOC(=O)OC1=C(c2c(C)cc(Cl)cc2C)C(=O)NC12CCN(OC)CC2", "note": "[Compound A]", "values": [{"measurement": "performance in comparison to prior art tetramic acid compound spirotetramat", "setting": "[1]", "result": "outperformed spirotetramat"}, {"measurement": "% root length in cm compared to check (= 100%)", "setting": "[1]; [5]", "result": 204, "unit": "%"}, {"measurement": "Number of root galls per plant", "setting": "[1]; [5]", "result": 1}, {"measurement": "Mean tuber weight relative to inoculated check (%), Observed %", "setting": "[3]; [6]", "result": 17.0, "unit": "%"}]}]}
